Source: patent publication US5556744A, “Methods and compositions for diagnosing and treating certain HIV infected patients” (The Trustees of the University of Pennsylvania, priority 1994, dated 1996)

How the values were obtained:
[1] = system: HIV-1 infected cells (MN isolate); test: Anti-syncytial assay (inhibition of HIV-1 MN syncytium formation, SupT1 target cells); format: cell-based; conditions: HIV-1 MN, SupT1 cells, 3 days; vs normal human serum
Excerpt: (§1) The H9 cell line (a cutaneous T lymphoma line) infected by HIV-IIIB [ATCC CRL 8543] was used in the neutralization assay. The H9 cell line infected by HIV-MN was used in the anti-syncytial assays. SupT1 and Hut78 cells were used as the target cell lines for the anti-syncytial and neutralization assays. All cell lines were obtained from the National Institutes of Health AIDS Repository (Bethesda, Md.).
To analyze the effect of the maternal serum samples on HIV-1 fusion, SupT1 cells were used as target cells in an anti-syncytial assay. Dilutions of the different maternal serum samples were made in 96 well plates in RPMI 1640 media containing 10% fetal calf serum at final dilutions of 1:4, 1:8, 1:16, 1:32, 1:64, 1:128, 1:256 or 1:512. HIV-1 infected cells (MN isolate) were then plated in the wells at a density of approximately 10^4 cells per well. SupT1 target cells were then added at 5×10^5 /well and the number of syncytia are determined after 3 days of incubation. Inhibition of syncytium formation by a serum sample was considered significant if the dilution which yielded a 50% reduction in the number of syncytia when compared to control was greater than 1:32. The average number of syncytia in the control (normal human serum) wells at the above dilutions were: 45.5, 48.5, 44, 48, 48.5, 41.5, 42 and 45.5 respectively.

HIV-IIIB viral isolate = test: Neutralization assay (HIV-IIIB, Hut-78 cells, p24 antigen ELISA); format: cell-based, HIV-1 IIIB; design: key to Neutralization Activity, Dilution Resulting in ≥50% Inhibition: --: (-) indicates negative (i.e. a dilution of <1:10); conditions: HIV-IIIB, Hut-78 cells, p24 OD450 after 6 days; vs normal human serum
Protocol: as §1
In a neutralization assay, 20 μl of maternal sera samples was placed in 96 round bottom well plates at final dilutions of 1:10, 1:90 and 1:810 in RPMI. The HIV-IIIB viral isolate was diluted in RPMI to a TCID50 of 100 units/ml. Twenty μl of the virus solution was placed in each well and the plate was incubated for one hour at 4° C. Hut-78 cells were incubated with 2 μg/ml of polybrene for one hour at 37° C. in a CO2 incubator. The HUT-78 cells were washed and resuspended in fresh RPMI to a final concentration of 4×10^6 cells/ml. Ten μl of the cell suspension was added to each well and the plate was incubated for one hour in a 37° C., CO2 incubator.
Fifteen μl of the serum/cell/virus solution was aliquoted to a new plate containing 200 μl of fresh RPMI and incubated for 6 days. After 6 days, 100 μl was used to analyze for p24 antigen. The p24 capture ELISA assay kit (Coulter Corporation, Hialeah, Fla.) was used to perform the measurements.
Further, sera samples at the same dilutions as described above were tested for residual p24 core protein or antibody to insure the results were due only to viral infection.

gp120 peptides = test: Number of gp120 peptides bound by maternal sera (Examples 3, 4); format: binding, HIV-1 IIIB; conditions: Table 8
Protocol: (§2) Radioimmunoassay (RIA) and enzyme-linked immunosorbent assay (ELISA) were performed by standard methodologies [E. Engvall, Meth. Immunol., 70:419-439 (1980); S. K. Pierce et al, J. Exp. Med., 144:1254-1262 (1976)]. Peptides were dissolved in 0.05M carbonate-bicarbonate buffer (pH 9.6) at a concentration of 10 μg/ml. Fifty μl (500 ng) of the peptides were immobilized in 96 well polyvinylchloride plates (Dynatech Laboratories, Inc.) overnight at 4° C. Plates were washed and non-specific sites were blocked with PBS containing 1% BSA overnight at 4° C.
(§3) Dilutions of HIV positive maternal sera were made in blocking buffer at dilutions of 1:50 and 1:500 and incubated in peptide coated plates overnight at 4° C. Plates were washed with PBS and incubated with 75,000 cpm of ^125 I-labelled goat anti-human IgG. The antibody was iodinated by a chloramine T method [W. V. Williams et al, Proc. Natl. Acad. Sci. USA, 85:6488-6492 (1988)]. Plates were washed, dried and counted in a gamma counter to measure specific binding. Normal human serum (i.e., HIV seronegative) was used as a control.
(§4) Alternatively, ELISA assays were performed in polystyrene plates (Dynatech Laboratories, Inc) in which 0.05% Tween 20 (Sigma Chemical Co.) was included in the washing, blocking and dilution buffers. The secondary antibody used was goat […] Ig conjugated to horseradish peroxidase (HRP) (Sigma Chemical Co). The substrate used for color development was 3,3',5,5' tetramethyl-benzidine dihydrochloride (TMB) (Sigma Chemical Co). Absorbance of samples was measured in a Dynatech MR5000 (Dynatech Laboratories, Inc.) plate reader and expressed as an optical density at wavelength of 450 nm (OD450).
(§5) The results of the binding assays are represented in Tables 3, 4, 6 and 7. The following key is used for the designation of specific binding of the maternal sera samples to the peptides: The minus sign, -, is equivalent to the specific OD450 or cpm of sera sample binding to peptide divided by the specific OD450 or cpm of NHS sample binding to peptide, which value is less than 2. The plus sign, +, is equivalent to the specific OD450 or cpm of sera sample binding to peptide divided by the specific OD450 or cpm of NHS sample binding to peptide, which value is between 2 to 3. The double plus sign, ++, is equivalent to the specific OD450 or cpm of sera sample binding to peptide divided by the specific OD450 or cpm of NHS sample binding to peptide, which value is greater than 3.
(§6) Comparisons of number of peptides which bound maternal serum samples were made between the transmission group and the nontransmission group. The data was analyzed using the unpaired student's test. For the determination of differences in the binding of specific peptides between transmission and non-transmission groups, the Spearman's rank-order correlation test was performed.

gp41 peptides = test: Number of gp41 peptides bound by maternal sera (Examples 3, 4); format: binding, HIV-1 IIIB; conditions: Table 8
Protocol: as §2, §3, §4, §5, §6

Row | Substance | Anti-Syncytial Activity, Dilution Resulting in ≥50% Inhibition [1] | Neutralization Activity, Dilution Resulting in ≥50% Inhibition (HIV-IIIB viral isolate) | Number of gp120 Peptides Bound (+/++) (gp120 peptides) | Number of gp41 Peptides Bound (+ or ++) (gp41 peptides)
1 | HP3: gp120 peptide, amino acids 102-116, SEQ ID NO:101 (EQMHEDIISLWDQSL) | 1:256 | 1:90 | 4 | 2
2 | HP10: gp120 peptide, amino acids 157-171, SEQ ID NO:105 (CSFNISTSIRGKVQK) | 1:256 | -- | 2 | 0
3 | HP9: gp120 peptide, amino acids 141-155, SEQ ID NO:104 (NSSSGRMIMEKGEIK) | 1:256 | 1:810 | 3 | 1
4 | 17: gp120 peptide, amino acids 267-282, SEQ ID NO:111 (EEEVVIRSVNFTDNAK) [Peptide 17] | 1:256 | 1:810 | 5 | 4
5 | HP5: gp120 peptide, amino acids 105-117, SEQ ID NO:102 | 1:128 | -- | 4 | 0
6 | HP1: gp120 peptide, amino acids 93-107, SEQ ID NO:99 (FNMWKNDMVEQMHED) | 1:64 | -- | 6 | 6
7 | HP7: gp120 peptide, amino acids 107-121, SEQ ID NO:103 (DIISLWDQSLKPCVK) | 1:64 | 1:810 | 3 | 3
8 | HP2: gp120 peptide, amino acids 98-112, SEQ ID NO:100 (NDMVEQMHEDIISLW) | 1:32 | -- | 4 | 2
